These results are taken from ChEMBL document CHEMBL1201862, “PubChem BioAssay data set” (2004).

Some test systems named below: 786-0; CCRF-CEM; COLO 205; HCT-15; HL-60; HT-29; IGROV-1; MOLT-4; OVCAR-3; RPMI-8226; SF-268; SN12C; SNB-19; SW-620; UACC-62; EKVX; HOP-92.
Assay in all cases: NCI anticancer screen, dose series, 48 h

The structures appear in SMILES notation.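 Exposure lasted 48 hours, with cells grown in 96-well plates and compounds tested at five concentrations. The concentration for 50% growth inhibition is given as GI50.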 Activity calls are given as the source filed them. Cut-off read from the data, not from the text of the source: active = GI50 up to about 1.1 µM and inactive = higher. Bounds are passed on as bounds.

As for `CC(C)(C)C(=O)OC12/C(=N/O)CCCCCC1c1ccccc12` (stereo not drawn), the GI50 was 17.2 µM (inactive) in the assay with 786-0; 23.4 µM (inactive) with CCRF-CEM; 17 µM (inactive) in the assay with COLO 205; 16.2 µM with HCT-15; 18.2 µM (inactive) in the assay with HL-60; 13.3 µM (inactive) in the assay on HT-29. Moreover, the GI50 was 16.1 µM (inactive) in the assay with IGROV-1; 14.5 µM (inactive) in the assay on MOLT-4; 17.4 µM (inactive) in the assay on OVCAR-3; 11.9 µM (inactive) in the assay on RPMI-8226; 16.4 µM (inactive) with SF-268; 19 µM (inactive) in the assay with SN12C. Moreover, the values for the GI50 with SNB-19, with SW-620 and with UACC-62 were 17.4 µM (inactive), 17.6 µM (inactive) and 17.4 µM (inactive), respectively.

Turning to `COc1ccc(C(=O)C(C(=O)C(=O)Nc2ccc(Cl)c(Cl)c2)c2ccc(OC)cc2)cc1` (stereo not drawn), the GI50 was > 100 µM (inactive) in the assay on 786-0; > 100 µM (inactive) with EKVX; more than 100 µM in the assay with HCT-15; 78.5 µM (inactive) in the assay on HL-60; > 100 µM (inactive) in the assay on HOP-92; > 100 µM (inactive) in the assay on HT-29. The GI50 in the assay with IGROV-1, in the assay on MOLT-4, in the assay on OVCAR-3, in the assay with RPMI-8226, in the assay with SF-268 and with SN12C was > 100 µM (inactive) each time. In addition, the GI50 with SNB-19, with SW-620 and in the assay on UACC-62 was > 100 µM (inactive) in each case.

Turning to `COc1ccc(N2C(=O)/C(=C/c3ccc(N(CCC#N)CCC#N)cc3C)N=C2/C=C\c2ccccc2)cc1`, the GI50 with 786-0 was 44.4 µM (inactive); with CCRF-CEM, 24 µM (inactive); with COLO 205, 26.7 µM (inactive); with HCT-15, 5.69 µM; in the assay on HL-60 it was 92.7 µM (inactive); with HOP-92, > 100 µM (inactive). Also, the GI50 was 38.9 µM (inactive) in the assay on HT-29; 68.4 µM (inactive) with IGROV-1; 34.3 µM (inactive) with MOLT-4; > 100 µM (inactive) in the assay on OVCAR-3; 41.1 µM (inactive) in the assay on RPMI-8226; 22.6 µM (inactive) with SF-268. Besides, the GI50 is 4.35 µM (inactive) in the assay on SN12C, > 100 µM (inactive) in the assay with SNB-19, 33.2 µM (inactive) in the assay with SW-620 and 5.24 µM (inactive) in the assay with UACC-62.

Take `CC(=O)OC1C(CCl)OC(N=[N+]=[N-])C(OC(C)=O)C1OC(C)=O` (stereo not drawn): the GI50 was > 100 µM (inactive) with 786-0; > 100 µM (inactive) in the assay on CCRF-CEM; > 100 µM (inactive) with COLO 205; > 100 µM (inactive) in the assay with EKVX; more than 100 µM in the assay with HCT-15; > 100 µM (inactive) with HL-60. Besides, the GI50 with HT-29, with IGROV-1, in the assay with MOLT-4, in the assay on OVCAR-3, in the assay on RPMI-8226 and in the assay with SF-268 was > 100 µM (inactive) in each case. Moreover, the GI50 in the assay with SN12C, in the assay with SNB-19, with SW-620 and in the assay on UACC-62 was > 100 µM (inactive) in each case.

With `O=C1CCN2C(=Nc3cccc4cccc2c34)N1`, the GI50 in the assay on 786-0 was 26.1 µM (inactive); in the assay with CCRF-CEM, > 100 µM (inactive); with COLO 205, > 100 µM (inactive); in the assay with EKVX, 0.551 µM (active); in the assay on HCT-15, more than 100 µM; with HL-60, > 100 µM (inactive). In addition, the GI50 in the assay on HT-29, in the assay with IGROV-1, in the assay with MOLT-4, with RPMI-8226, in the assay with SF-268 and in the assay with SN12C was > 100 µM (inactive) throughout. Moreover, the GI50 with SNB-19, in the assay on SW-620 and with UACC-62 was > 100 µM (inactive) in each case.

Consider `Cc1cc(NS(=O)(=O)c2ccc(NC(=O)c3ccc(Cl)c4c(Nc5ccc(S(=O)(=O)N=C(N)N)cc5)c5ccccc5nc34)cc2)no1`, for which the GI50 with 786-0 was 45.6 µM (inactive); in the assay on CCRF-CEM, 28.3 µM (inactive); in the assay with EKVX, 95.1 µM (inactive); with HCT-15 it was more than 100 µM; in the assay on HT-29, 45.8 µM (inactive); in the assay with MOLT-4, 15.2 µM (inactive). In addition, the GI50 is 27 µM (inactive) in the assay on OVCAR-3; 59.7 µM (inactive) with RPMI-8226; 42.3 µM (inactive) in the assay on SF-268; 32.3 µM (inactive) in the assay with SN12C; 39.7 µM (inactive) in the assay on SNB-19; 44.3 µM (inactive) in the assay with UACC-62.

In the case of `COc1cc(N)c2[nH]c3c(C)ccc(C)c3c2c1`, the GI50 with 786-0 was > 100 µM (inactive); with CCRF-CEM, > 100 µM (inactive); with COLO 205, > 100 µM (inactive); in the assay with EKVX it was > 100 µM (inactive); with HCT-15, more than 100 µM; in the assay on HL-60, > 100 µM (inactive). Also, the GI50 in the assay with HT-29, with MOLT-4, in the assay on OVCAR-3, in the assay with RPMI-8226, with SF-268 and with SN12C was > 100 µM (inactive) in each case. In addition, the GI50 in the assay with SNB-19 and in the assay with SW-620 was > 100 µM (inactive) in each case.

With `O=C(O)C1(c2ccccc2)CCCNCC1` (stereo not drawn), the GI50 is > 100 µM (inactive) in the assay on 786-0; > 100 µM (inactive) in the assay on CCRF-CEM; > 100 µM (inactive) in the assay on COLO 205; > 100 µM (inactive) in the assay with EKVX; more than 100 µM in the assay on HCT-15; > 100 µM (inactive) in the assay on HOP-92. The GI50 in the assay with HT-29, in the assay on IGROV-1, in the assay with MOLT-4, with OVCAR-3, with RPMI-8226 and in the assay on SF-268 was > 100 µM (inactive) throughout. For the same compound, the GI50 in the assay on SN12C, with SNB-19, in the assay with SW-620 and with UACC-62 was > 100 µM (inactive) in each case.

For `CN(C)C(=S)/N=c1\ssc(=S)n1-c1ccccc1`, the GI50 with 786-0 is 16.8 µM (inactive); in the assay with CCRF-CEM it was 0.36 µM (active); with EKVX it was 23.4 µM (inactive); in the assay on HCT-15, 14.7 µM; with HL-60, 18.1 µM (inactive); in the assay with HOP-92 it was 20.4 µM (inactive). The GI50 with HT-29 is 18.9 µM (inactive); with IGROV-1, 17 µM (inactive); in the assay on SF-268, 16.9 µM (inactive); with SN12C, 15.3 µM (inactive); with SNB-19 it was 39.6 µM (inactive); in the assay with SW-620, 10.7 µM (inactive). In the assay with UACC-62, the GI50 was 16 µM (inactive).

Take `O=C(O)c1nccnc1C(=O)O`: the GI50 in the assay with 786-0 was > 100 µM (inactive); in the assay on CCRF-CEM, > 100 µM (inactive); with COLO 205 it was > 100 µM (inactive); in the assay on EKVX it was > 100 µM (inactive); in the assay with HCT-15, more than 100 µM; with HL-60, > 100 µM (inactive). Also, the GI50 in the assay with HOP-92, with HT-29, with IGROV-1, in the assay on MOLT-4, in the assay on RPMI-8226 and with SF-268 was > 100 µM (inactive) in each case. Further, the GI50 in the assay with SN12C, in the assay with SNB-19, in the assay with SW-620 and in the assay with UACC-62 was > 100 µM (inactive) each time.

`CCCCNC1=C(C(=O)OCC)C(=O)CO1`: the GI50 is > 100 µM (inactive) in the assay on 786-0; > 100 µM (inactive) with CCRF-CEM; > 100 µM (inactive) with COLO 205; > 100 µM (inactive) in the assay on EKVX; more than 100 µM in the assay with HCT-15; > 100 µM (inactive) in the assay on HL-60. The GI50 in the assay on HT-29, in the assay with IGROV-1, in the assay on MOLT-4, in the assay with OVCAR-3, with RPMI-8226 and in the assay with SF-268 was > 100 µM (inactive) each time. The GI50 in the assay with SN12C, in the assay with SNB-19, in the assay with SW-620 and in the assay on UACC-62 was > 100 µM (inactive) in each case.

For `COC(=O)C1=C(C(=O)OC)C2(C)OC1C(=O)C21CC1` (stereo not drawn), the GI50 in the assay on 786-0 is 38.7 µM (inactive); in the assay on CCRF-CEM it was 16.9 µM (inactive); in the assay with COLO 205 it was 24.1 µM (inactive); in the assay with EKVX, 39.7 µM (inactive); with HCT-15, 19.7 µM; in the assay on HL-60, 16.7 µM (inactive). For the same compound, the GI50 in the assay on HT-29 was 18.1 µM (inactive); with IGROV-1, 23.2 µM (inactive); in the assay with MOLT-4, 19.5 µM (inactive); in the assay on OVCAR-3, 22.1 µM (inactive); in the assay on RPMI-8226 it was 16.9 µM (inactive); with SF-268, 54.5 µM (inactive). The results for the GI50 with SN12C, with SNB-19 and in the assay on SW-620 were 22.9 µM (inactive), > 100 µM (inactive) and 19.5 µM (inactive), respectively.

In the case of `O=C(Cc1nc2ccccc2s1)C(=O)Nc1ccc(Cl)cc1Cl`, the GI50 in the assay on 786-0 is > 100 µM (inactive); in the assay with COLO 205, > 100 µM (inactive); in the assay with HCT-15, more than 100 µM; in the assay with HOP-92, 65.8 µM (inactive); in the assay with HT-29 it was > 100 µM (inactive); with IGROV-1 it was > 100 µM (inactive). Also, the GI50 in the assay on MOLT-4, in the assay on OVCAR-3, in the assay with RPMI-8226, with SF-268, in the assay with SN12C and with SNB-19 was > 100 µM (inactive) throughout. In addition, the GI50 with SW-620 is > 100 µM (inactive).

As for `C=C[C@@]12CCCCC1C/C(=C(/O)OC)C(=O)C2` (stereo partly drawn), the GI50 in the assay on 786-0, in the assay with CCRF-CEM, with COLO 205, in the assay with EKVX, in the assay on HL-60 and with HOP-92 was > 100 µM (inactive) throughout. The GI50 in the assay on HT-29, with IGROV-1, with MOLT-4, in the assay with OVCAR-3, in the assay on RPMI-8226 and with SF-268 was > 100 µM (inactive) each time. For the same compound, the GI50 with SN12C, in the assay with SNB-19, with SW-620 and with UACC-62 was > 100 µM (inactive) throughout.
